The source of these data is patent publication US20240109865A1, “INDAZOLE COMPOUNDS AS KINASE INHIBITORS” (TYRA BIOSCIENCES, INC., priority 2020, published 2024).

What all share (test): Kinase assay, binding constants (Kd), kinase-tagged T7 phage, qPCR
(In qPCR the cycle at which signal appears reflects the starting amount.)

For one assay, the target named is FGFR2 (Homo sapiens (Human), UniProt P21802). An outline of the steps: (§1)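 Competition binding: T7 phage-tagged kinase + biotin-ligand beads + compound (11 pts, 3-fold, 0.9% DMSO). Elution 30 min RT with free ligand; qPCR quantitation. Kd via Hill fit, slope −1.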
A further assay addresses FGFR1 (Homo sapiens (Human), UniProt P11362). An outline of the steps: as §1
A further assay has as its target FGFR3 (Homo sapiens (Human), UniProt P22607). The procedure, abridged: as §1
The next assay addresses FGFR3 (V555M) (Homo sapiens (Human), UniProt P22607, V555M). Particulars: V555M mutant. The procedure, abridged:
as §1

In another assay the target is FGFR4 (Homo sapiens (Human), UniProt P22455). An outline of the steps: as §1
Chain of FGFR4 (P22455 22-802): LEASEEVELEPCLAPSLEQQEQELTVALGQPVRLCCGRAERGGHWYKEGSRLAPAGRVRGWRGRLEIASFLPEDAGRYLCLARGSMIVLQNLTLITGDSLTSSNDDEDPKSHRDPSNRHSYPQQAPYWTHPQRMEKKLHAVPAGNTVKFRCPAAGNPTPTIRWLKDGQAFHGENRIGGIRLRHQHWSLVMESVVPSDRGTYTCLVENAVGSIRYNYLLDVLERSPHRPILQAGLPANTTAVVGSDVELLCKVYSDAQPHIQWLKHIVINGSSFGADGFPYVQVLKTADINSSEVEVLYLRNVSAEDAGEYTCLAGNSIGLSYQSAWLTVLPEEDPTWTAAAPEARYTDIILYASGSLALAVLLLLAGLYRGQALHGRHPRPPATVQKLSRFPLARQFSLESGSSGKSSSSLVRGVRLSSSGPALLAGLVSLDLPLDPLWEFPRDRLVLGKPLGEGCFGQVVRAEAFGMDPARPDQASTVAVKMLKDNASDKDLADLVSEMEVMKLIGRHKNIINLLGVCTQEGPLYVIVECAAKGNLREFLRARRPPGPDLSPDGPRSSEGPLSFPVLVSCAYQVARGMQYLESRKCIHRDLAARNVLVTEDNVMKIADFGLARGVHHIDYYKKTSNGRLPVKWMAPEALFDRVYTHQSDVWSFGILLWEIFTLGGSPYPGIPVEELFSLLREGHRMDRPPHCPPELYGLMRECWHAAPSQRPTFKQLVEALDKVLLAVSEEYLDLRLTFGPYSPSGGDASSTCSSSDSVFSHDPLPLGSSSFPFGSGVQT

Chain of FGFR2 (P21802 22-821): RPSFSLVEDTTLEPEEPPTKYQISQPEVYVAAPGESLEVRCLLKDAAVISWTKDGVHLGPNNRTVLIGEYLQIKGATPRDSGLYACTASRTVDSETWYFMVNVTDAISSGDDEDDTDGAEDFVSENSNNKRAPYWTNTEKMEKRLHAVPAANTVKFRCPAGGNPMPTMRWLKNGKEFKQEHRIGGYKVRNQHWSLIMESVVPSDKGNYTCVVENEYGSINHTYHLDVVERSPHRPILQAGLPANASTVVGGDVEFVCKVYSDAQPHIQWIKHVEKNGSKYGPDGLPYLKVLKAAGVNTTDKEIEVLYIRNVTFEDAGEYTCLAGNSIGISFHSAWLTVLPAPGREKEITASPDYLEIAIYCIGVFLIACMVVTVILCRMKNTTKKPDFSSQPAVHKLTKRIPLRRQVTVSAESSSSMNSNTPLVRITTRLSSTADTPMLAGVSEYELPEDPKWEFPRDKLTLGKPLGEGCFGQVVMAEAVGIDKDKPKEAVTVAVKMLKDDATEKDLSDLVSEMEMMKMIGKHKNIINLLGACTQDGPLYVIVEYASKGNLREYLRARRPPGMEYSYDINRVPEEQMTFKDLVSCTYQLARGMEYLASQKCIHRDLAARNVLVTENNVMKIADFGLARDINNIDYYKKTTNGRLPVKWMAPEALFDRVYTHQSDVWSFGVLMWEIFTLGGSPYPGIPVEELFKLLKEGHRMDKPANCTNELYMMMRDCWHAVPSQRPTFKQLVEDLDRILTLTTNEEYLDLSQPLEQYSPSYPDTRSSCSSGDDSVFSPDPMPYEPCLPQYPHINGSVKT
Chain of FGFR1 (P11362 22-822): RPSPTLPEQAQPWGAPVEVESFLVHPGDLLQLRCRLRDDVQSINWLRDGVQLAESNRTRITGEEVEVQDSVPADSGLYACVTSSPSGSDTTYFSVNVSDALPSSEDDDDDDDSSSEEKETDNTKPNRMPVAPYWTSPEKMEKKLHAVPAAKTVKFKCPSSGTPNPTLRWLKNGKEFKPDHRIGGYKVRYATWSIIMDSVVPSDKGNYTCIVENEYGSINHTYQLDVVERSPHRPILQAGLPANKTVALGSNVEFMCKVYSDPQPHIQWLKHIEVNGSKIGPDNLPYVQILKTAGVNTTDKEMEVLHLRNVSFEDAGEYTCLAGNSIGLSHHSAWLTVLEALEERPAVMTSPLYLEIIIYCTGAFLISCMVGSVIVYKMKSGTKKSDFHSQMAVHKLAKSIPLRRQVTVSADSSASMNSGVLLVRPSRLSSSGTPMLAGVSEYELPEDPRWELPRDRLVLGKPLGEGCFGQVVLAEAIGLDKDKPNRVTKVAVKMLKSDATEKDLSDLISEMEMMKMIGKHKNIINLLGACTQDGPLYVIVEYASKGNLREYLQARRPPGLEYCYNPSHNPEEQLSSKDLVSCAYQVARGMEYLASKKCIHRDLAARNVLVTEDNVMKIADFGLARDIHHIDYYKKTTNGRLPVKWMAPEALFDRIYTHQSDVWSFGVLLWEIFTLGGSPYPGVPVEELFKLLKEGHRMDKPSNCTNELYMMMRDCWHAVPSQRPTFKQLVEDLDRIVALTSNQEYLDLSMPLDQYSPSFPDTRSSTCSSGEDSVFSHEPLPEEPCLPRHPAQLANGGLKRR
Chain of FGFR3 (V555M) (P22607 23-806 V555M): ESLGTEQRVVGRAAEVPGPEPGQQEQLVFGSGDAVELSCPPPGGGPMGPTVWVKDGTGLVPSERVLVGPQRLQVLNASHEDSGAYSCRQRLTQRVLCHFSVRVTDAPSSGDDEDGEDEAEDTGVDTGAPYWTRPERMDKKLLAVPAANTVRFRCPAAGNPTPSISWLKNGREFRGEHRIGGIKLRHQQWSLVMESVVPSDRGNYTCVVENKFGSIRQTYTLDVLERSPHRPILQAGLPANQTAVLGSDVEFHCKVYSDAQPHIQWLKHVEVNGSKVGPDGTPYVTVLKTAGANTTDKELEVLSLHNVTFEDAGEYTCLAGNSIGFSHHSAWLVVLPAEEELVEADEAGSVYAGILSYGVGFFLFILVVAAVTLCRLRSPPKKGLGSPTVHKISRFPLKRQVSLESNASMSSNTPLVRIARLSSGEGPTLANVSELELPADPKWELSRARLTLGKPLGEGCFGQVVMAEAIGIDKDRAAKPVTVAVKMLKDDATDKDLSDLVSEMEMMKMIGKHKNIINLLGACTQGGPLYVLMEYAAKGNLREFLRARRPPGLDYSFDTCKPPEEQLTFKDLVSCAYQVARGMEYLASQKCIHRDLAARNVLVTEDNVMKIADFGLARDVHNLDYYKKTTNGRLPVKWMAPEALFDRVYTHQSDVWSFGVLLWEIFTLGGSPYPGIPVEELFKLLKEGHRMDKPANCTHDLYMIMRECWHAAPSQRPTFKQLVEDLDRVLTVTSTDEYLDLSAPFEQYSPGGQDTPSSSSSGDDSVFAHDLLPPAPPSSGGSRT
Chain of FGFR3 (P22607 23-806): as the sequence (P22607 23-806 V555M) above, with M533V counted along it

By Kd is commonly meant the free concentration of one partner at which half of the binding sites on the other are occupied at equilibrium, for simple one-to-one binding. A low value points to higher affinity. `C[C@@H](Oc1ccc2[nH]nc(-c3cnc(N4CC(O)C4)c(C#N)c3)c2c1)c1c(Cl)cncc1Cl` [Example 302, 5-[5-[(1R)-1-(3,5-dichloro-4-pyridyl)ethoxy]-1H-indazol-3-yl]-2-(3-hydroxyazetidin-1-yl)pyridine-3-carbonitrile]: the Kd fell in the range of 100 to 300 nM at FGFR2; 100 to 300 nM at FGFR1; 20 to 100 nM at FGFR3; 1 to 20 nM on FGFR3 (V555M); 1 to 20 nM at FGFR4.
With `C[C@@H](Oc1ccc2[nH]nc(-c3cnc(N4CCC(C(C)(C)O)CC4)c(C#N)c3)c2c1)c1c(Cl)cncc1Cl` [Example 303, 5-[5-[(1R)-1-(3,5-dichloro-4-pyridyl)ethoxy]-1H-indazol-3-yl]-2-[4-(1-hydroxy-1-methyl-ethyl)-1-piperidyl]pyridine-3-carbonitrile], the Kd is 20 to 100 nM at FGFR2; 20 to 100 nM on FGFR1; 1 to 20 nM at FGFR3; 1 to 20 nM on FGFR3 (V555M); 1 to 20 nM at FGFR4.
For the molecule `COc1cc(-c2n[nH]c3ccc(O[C@H](C)c4c(C)cnnc4C)cc23)cnc1N1CCC1` [Example 304, (R)-3-(6-(azetidin-1-yl)-5-methoxypyridin-3-yl)-5-(1-(3,5-dimethylpyridazin-4-yl)ethoxy)-1H-indazole], the Kd on FGFR2 is above 300 nM; on FGFR1, above 300 nM; on FGFR3, 100 to 300 nM; on FGFR3 (V555M) it was 20 to 100 nM; at FGFR4, 1 to 20 nM.
On to `COc1cc(-c2n[nH]c3ccc(O[C@H](C)c4c(C)cnnc4C)cc23)cnc1N1CCCC1` [Example 305, (R)-5-(1-(3,5-dimethylpyridazin-4-yl)ethoxy)-3-(5-methoxy-6-(pyrrolidin-1-yl)pyridin-3-yl)-1H-indazole], for which the Kd at FGFR2 is above 300 nM; on FGFR1, above 300 nM; on FGFR3, above 300 nM; on FGFR3 (V555M), 100 to 300 nM; on FGFR4, 20 to 100 nM.
In the case of `Cc1cnnc(C)c1[C@@H](C)Oc1ccc2[nH]nc(-c3cnc(N4CC[C@H](O)C4)c(C#N)c3)c2c1` [Example 306, 5-(5-((R)-1-(3,5-dimethylpyridazin-4-yl)ethoxy)-1H-indazol-3-yl)-2-((S)-3-hydroxypyrrolidin-1-yl)nicotinonitrile], the Kd on FGFR2 lay in the range of 20 to 100 nM; at FGFR1, 100 to 300 nM; at FGFR3, 20 to 100 nM; at FGFR3 (V555M), 1 to 20 nM; on FGFR4, 1 to 20 nM.
Regarding `Cc1cnnc(C)c1[C@@H](C)Oc1ccc2[nH]nc(-c3cnc(N4CC[C@@H](C(C)(C)O)C4)c(C#N)c3)c2c1` [Example 307, 5-(5-((R)-1-(3,5-dimethylpyridazin-4-yl)ethoxy)-1H-indazol-3-yl)-2-((R)-3-(2-hydroxypropan-2-yl)pyrrolidin-1-yl)nicotinonitrile], the Kd was 20 to 100 nM on FGFR2; 100 to 300 nM on FGFR1; 20 to 100 nM at FGFR3; 1 to 20 nM at FGFR3 (V555M); 1 to 20 nM on FGFR4.
In the case of `Cc1ncc(Cl)c([C@@H](C)Oc2ccc3[nH]nc(-c4cnc(N5CC(O)C5)c(C#N)c4)c3c2)c1Cl` [Example 308, 5-[5-[(1R)-1-(3,5-dichloro-2-methyl-4-pyridyl)ethoxy]-1H-indazol-3-yl]-2-(3-hydroxyazetidin-1-yl)pyridine-3-carbonitrile], the Kd was above 300 nM on FGFR2; above 300 nM at FGFR1; 100 to 300 nM at FGFR3; 20 to 100 nM on FGFR3 (V555M); 1 to 20 nM at FGFR4.
As to `C[C@@H](Oc1ccc2[nH]nc(-c3cnc(N4CCC4)c(C#N)c3)c2c1)c1c(Cl)cncc1Cl` [Example 309, 2-(azetidin-1-yl)-5-[5-[(1R)-1-(3,5-dichloro-4-pyridyl)ethoxy]-1H-indazol-3-yl]pyridine-3-carbonitrile], the Kd was above 300 nM on FGFR2; above 300 nM at FGFR1; 100 to 300 nM at FGFR3; 20 to 100 nM at FGFR3 (V555M); 1 to 20 nM on FGFR4.
Take `COc1cc2[nH]nc(-c3ccc(N4CCC4)nc3)c2cc1O[C@H](C)c1c(C)cnnc1C` [Example 310, (R)-3-(6-(azetidin-1-yl)pyridin-3-yl)-5-(1-(3,5-dimethylpyridazin-4-yl)ethoxy)-6-methoxy-1H-indazole]: the Kd at FGFR2, on FGFR1, on FGFR3, on FGFR3 (V555M) and on FGFR4 was 1 to 20 nM each time.
`COc1cc2[nH]nc(-c3cnc(N4CC[C@H](O)C4)c(C#N)c3)c2cc1O[C@H](C)c1c(C)cnnc1C` [Example 311, 5-(5-((R)-1-(3,5-dimethylpyridazin-4-yl)ethoxy)-6-methoxy-1H-indazol-3-yl)-2-((S)-3-hydroxypyrrolidin-1-yl)nicotinonitrile]: the Kd was 20 to 100 nM at FGFR2; 20 to 100 nM at FGFR1; 20 to 100 nM on FGFR3; 1 to 20 nM on FGFR3 (V555M); 1 to 20 nM on FGFR4.
`Cc1cnnc(C)c1[C@@H](C)Oc1ccc2[nH]nc(-c3cnc(N4CC5CC(C4)N5CC(C)(C)O)c(C#N)c3)c2c1` [Example 312, 5-(5-((R)-1-(3,5-dimethylpyridazin-4-yl)ethoxy)-1H-indazol-3-yl)-2-(6-(2-hydroxy-2-methylpropyl)-3,6-diazabicyclo[3.1.1]heptan-3-yl)nicotinonitrile]: the Kd on FGFR2, on FGFR1, at FGFR3, at FGFR3 (V555M) and on FGFR4 was 1 to 20 nM throughout.
`Cc1cnnc(C)c1[C@@H](C)Oc1ccc2[nH]nc(-c3cnc(N4CC[C@@H](O)C4)c(C#N)c3)c2c1` [Example 313, 5-(5-((R)-1-(3,5-dimethylpyridazin-4-yl)ethoxy)-1H-indazol-3-yl)-2-((R)-3-hydroxypyrrolidin-1-yl)nicotinonitrile]: the Kd at FGFR2 lay within 20 to 100 nM; on FGFR1 it was 100 to 300 nM; on FGFR3, 20 to 100 nM; on FGFR3 (V555M), 1 to 20 nM; on FGFR4 it was 1 to 20 nM.
`COc1cc2[nH]nc(-c3ccc(N4CC5CC(C4)N5)nc3)c2cc1O[C@H](C)c1c(C)cnnc1C` [Example 314, 3-(5-(5-((R)-1-(3,5-dimethylpyridazin-4-yl)ethoxy)-6-methoxy-1H-indazol-3-yl)pyridin-2-yl)-3,6-diazabicyclo[3.1.1]heptane]: the dissociation constant (Kd) at FGFR2, at FGFR1, at FGFR3, on FGFR3 (V555M) and on FGFR4 was 1 to 20 nM in each case.
On to `COc1cc2[nH]nc(-c3ccc(N4CCCC4)nc3)c2cc1O[C@H](C)c1c(C)cnnc1C` [Example 315, (R)-5-(1-(3,5-dimethylpyridazin-4-yl)ethoxy)-6-methoxy-3-(6-(pyrrolidin-1-yl)pyridin-3-yl)-1H-indazole], for which the Kd on FGFR2, on FGFR1, on FGFR3, on FGFR3 (V555M) and on FGFR4 was 1 to 20 nM each time.
Regarding `COc1cc2[nH]nc(-c3cnc(N4CC[C@H](C(C)(C)O)C4)c(C#N)c3)c2cc1O[C@H](C)c1c(C)cnnc1C` [Example 316, 5-(5-((R)-1-(3,5-dimethylpyridazin-4-yl)ethoxy)-6-methoxy-1H-indazol-3-yl)-2-((S)-3-(2-hydroxypropan-2-yl)pyrrolidin-1-yl)nicotinonitrile], the equilibrium dissociation constant (Kd) was 20 to 100 nM on FGFR2; 20 to 100 nM at FGFR1; 1 to 20 nM on FGFR3; 1 to 20 nM on FGFR3 (V555M); 1 to 20 nM at FGFR4.
